Literature values, collected in patent publication US6011041A, “Use of anhydrovinblastine” (priority 1996, dated 2000).

How the values were obtained:
tumour = conditions: alkaloids extracted from Vinca rosea; cited from earlier work
human rhabdosarcomas = conditions: in vivo; cited from earlier work
[1] = humans; cited from earlier work

In the case of `CC[C@]1(O)C[C@@H]2CN(CCc3c([nH]c4ccccc34)[C@@](C(=O)OC)(c3cc4c(cc3OC)N(C)[C@H]3[C@@](O)(C(=O)OC)[C@H](OC(C)=O)[C@]5(CC)C=CCN6CC[C@]43[C@@H]65)C2)C1` [vinblastine], the antitumour activity (tumour) is listed as “significant antitumour activity”, the “activity in human rhabdosarcomas transplanted in nude mice” value (human rhabdosarcomas) is listed as “not active in this system” and the dose limiting toxicity [1] is listed as “anemia and leucopenia”.
In the case of `CC[C@]12CN3CCc4c([nH]c5ccccc45)[C@@](C(=O)OC)(c4cc5c(cc4OC)N(C)[C@H]4[C@@](O)(C(=O)OC)[C@H](OC(C)=O)[C@]6(CC)C=CCN7CC[C@]54[C@@H]76)C[C@@H](C3)[C@H]1O2` [vinleurosine], the antitumour activity (tumour) is listed as “significant antitumour activity”.
